pIC50: −log10 of the molar value.
Tests used:
Assay type in all cases: cell-based
[1] = tested on: pancreatic cancer cells DAN-G; assay: In vitro antitumor assay (Methylene Blue staining), DAN-G; settings: 72 hours culture with compound; read-out: Cell line IC50 DAN-G
Excerpt: (§1) Gastric cancer and pancreatic cancer cell lines were respectively inoculated on a 96-well plate. Gastric cancer cells KATO III were inoculated at a rate of 1×10^4 cells/well gastric cancer cells MKN-1 were inoculated at a rate of 5×10^5 cells/well, gastric cancer cells MKN-45 were inoculated at a rate of 1×10^4 cells/well, gastric cancer cells MKN-74 were inoculated at a rate of 1×10^4 cells/well, pancreatic cancer cells AsPC-1 were inoculated at a rate of […], pancreatic cancer cells BxPC-3 were inoculated at a rate of 5×10^5 cells/well, pancreatic cancer cells DAN-G were inoculated at a rate of 5×10^5 cells/well, and pancreatic cancer cells SUIT-2 were inoculated at a rate of 5×10^5 cells/well. After culturing the cells for 24 hours, each of the Example compounds or each of the Comparative Example compounds was added to the cells to obtain a final concentration of from 0.0244 μmol/L to 100 μmol/L at a common ratio of 4. Three technical replicates were used. Wells to which no drug was added were prepared as control, and wells to which cells and drugs were not added were prepared as blanks. After the cells were cultured for 72 hours, the culture fluid was removed, the cells were fixed with methanol, and then the cells were stained using a Methylene Blue stain solution. After excess Methylene blue stain solution was washed off, 200 μL of 0.1% hydrochloric acid was added to each well, and the dye was extracted. The light absorbance at 660 nm was measured using a microplate reader, and the cell proliferation inhibitory activity (GI %) was calculated from the light absorbance thus obtained by the following formula. GIXY %=(1−(AXY−B)/(C−B))×100
(§2) Here, GIXY % represents the cell prolj feration-inhibitory activity when the concentration of compound. X is Y μM; AXY represents the average light absorbance of the well to which compound X has been added at Y μM; B represents the light absorbance of a blank well; and C represents the tight absorbance of a control well.
(§3) The GIXY % was determined for various compound concentrations, and a proliferation-inhibition curve was plotted from the concentration and the cell proliferation-inhibitory activity.

[2] = tested on: gastric cancer cells MKN-1; assay: In vitro antitumor assay (Methylene Blue staining), MKN-1; settings: 72 hours culture with compound; read-out: Cell line IC50 MKN-1
Excerpt: as §1, §2, §3

[3] = tested on: pancreatic cancer cells SUIT-2; assay: In vitro antitumor assay (Methylene Blue staining), SUIT-2; settings: 72 hours culture with compound; read-out: Cell line IC50 SUIT-2
Excerpt: as §1, §2, §3

[4] = tested on: gastric cancer cells MKN-45; assay: In vitro antitumor assay (Methylene Blue staining), MKN-45; settings: 72 hours culture with compound; read-out: Cell line IC50 MKN-45
Excerpt: as §1, §2, §3

[5] = tested on: pancreatic cancer cells BxPC-3; assay: In vitro antitumor assay (Methylene Blue staining), BxPC-3; settings: 72 hours culture with compound; read-out: Cell line IC50 BxPC-3
Excerpt: as §1, §2, §3

[6] = tested on: pancreatic cancer cells AsPC-1; assay: In vitro antitumor assay (Methylene Blue staining), AsPC-1; settings: 72 hours culture with compound; read-out: Cell line IC50 AsPC-1
Excerpt: as §1, §2, §3

[7] = tested on: gastric cancer cells KATO III; assay: In vitro antitumor assay (Methylene Blue staining), KATO III; settings: 72 hours culture with compound; read-out: Cell line IC50 KATO III
Excerpt: as §1, §2, §3

[8] = tested on: gastric cancer cells MKN-74; assay: In vitro antitumor assay (Methylene Blue staining), MKN-74; settings: 72 hours culture with compound; read-out: Cell line IC50 MKN-74
Excerpt: as §1, §2, §3

Structure (SMILES): CC(=O)[O][Pt]1([OH])[O]C(=O)C(=O)[O]1.N[C@@H]1CCCC[C@H]1N (mixture of isomers) [Comparative Example 1, trans,cis,cis-[Pt(OH)(OAc)(R,R-dach) (ox)]]
- pIC50 [1]: 4.44
- pIC50 [2]: 4.34
- pIC50 [3]: 4.58
- pIC50 [4]: 5.21
- pIC50 [5]: 4.35
- pIC50 [6]: 4.20
- pIC50 [7]: 4.25
- pIC50 [8]: < 4.00

Structure (SMILES): N[C@@H]1CCCC[C@H]1N.O=C([O-])C(=O)[O-].[Pt+2] [Example 1-OHP, oxaliplatin]
- pIC50 [1]: 5.96
- pIC50 [2]: 6.30
- pIC50 [4]: 7.00
- pIC50 [5]: 6.10
- pIC50 [6]: 5.80
- pIC50 [7]: 5.04
- pIC50 [8]: 5.07

Structure (SMILES): N[C@@H]1CCCC[C@H]1N.O=C([O-])C(=O)[O-].[Cl-].[OH-].[Pt+4] (mixture of isomers) [Example 1, trans,cis,cis-[PtCl(OH) (R,R-dach) (ox)]]
- pIC50 [1]: 6.00
- pIC50 [2]: 5.72
- pIC50 [3]: 6.05
- pIC50 [4]: 6.52
- pIC50 [5]: 5.92
- pIC50 [6]: 5.51
- pIC50 [7]: 4.86
- pIC50 [8]: 4.80

Structure (SMILES): N[C@@H]1CCCC[C@H]1N.O=C1[O][Pt]([OH])([OH])[O]C(=O)C12CCC2 (mixture of isomers) [Comparative Example 6, trans,cis,cis-[Pt(OH)2(R,R-dach) (cbdc)]]
- pIC50 [1]: < 4.00
- pIC50 [2]: < 4.00
- pIC50 [3]: 4.10
- pIC50 [8]: < 4.00

Structure (SMILES): N[C@@H]1CCCC[C@H]1N.O=C1[O][Pt]([Cl])([O]CCO)[O]C1=O (mixture of isomers) [Comparative Example 2, trans,cis,cis-[PtCl (OCH2CH2OH) (R,R-dach) (ox)]]
- pIC50 [1]: 5.25
- pIC50 [2]: 4.97
- pIC50 [3]: 5.21
- pIC50 [4]: 5.72
- pIC50 [5]: 5.24
- pIC50 [6]: 5.01
- pIC50 [7]: 4.37
- pIC50 [8]: 4.24

Structure (SMILES): N[C@@H]1CCCC[C@H]1N.O=C1[O][Pt]([OH])([OH])[O]C1=O (mixture of isomers) [Comparative Example 3, trans,cis,cis-[Pt(OH)2 (R,R-dach) (ox)]]
- pIC50 [1]: < 4.00
- pIC50 [2]: < 4.00
- pIC50 [3]: 4.41
- pIC50 [8]: < 4.00

Structure (SMILES): N[C@@H]1CCCC[C@H]1N.O=C(CCc1ccccc1)[O][Pt]1([O]C(=O)CCc2ccccc2)[O]C(=O)C(=O)[O]1 [Comparative Example 4, trans,cis,cis-[Pt(OCOCH2CH2C6H5)2 (R,R-dach)(ox)]]
- pIC50 [1]: 5.17
- pIC50 [2]: 5.04
- pIC50 [3]: 6.00
- pIC50 [8]: 4.56

Structure (SMILES): NC1CCCCC1N.[Cl][Pt][Cl] (stereo not shown) [Pt(dach)Cl2]
- pIC50 [1]: 5.07
- pIC50 [2]: 5.43
- pIC50 [3]: 5.68
- pIC50 [4]: 6.30
- pIC50 [5]: 5.47
- pIC50 [6]: 4.83
- pIC50 [7]: 4.86
- pIC50 [8]: 4.65

Structure (SMILES): N[C@@H]1CCCC[C@H]1N.[OH][Pt]([Cl])([Cl])[Cl] (mixture of isomers) [Example 3, trans,cis,cis-[PtCl(OH) (R,R-dach) (Cl)2]]
- pIC50 [1]: 5.07
- pIC50 [2]: 5.59
- pIC50 [3]: 6.05
- pIC50 [8]: 4.77

Structure (SMILES): N[C@@H]1CCCC[C@H]1N.O=C1[O][Pt]([OH])([Cl])[O]C(=O)C12CCC2 (mixture of isomers) [Comparative Example 5, trans,cis,cis-[PtCl(OH) (R,R-dach) (cbdc)]]
- pIC50 [1]: 5.47
- pIC50 [2]: 5.35
- pIC50 [3]: 5.48
- pIC50 [8]: 4.54

Structure (SMILES): N[C@@H]1CCCC[C@H]1N.O=C1[O][Pt]([OH])([Br])[O]C1=O (mixture of isomers) [Example 2, trans,cis,cis-[PtBr(OH) (R,R-dach) (ox)]]
- pIC50 [2]: 5.57
- pIC50 [3]: 5.82
